Assay results: US20150018237A1, “MEANS AND METHODS FOR ASSESSING BONE DISORDERS” (BASF SE, priority 2012, published 2015)
Like-named read-outs stand apart in the source and are kept apart here. Marks after values point to notes of the source that are not given here.

Key:
rats [1] = details: rat, in vivo
Method: (§1) A group of each 5 male and female rats was dosed once daily with the indicated compounds (see Table 10, below for compounds, applied doses and administeration details) over 28 days.
(§2) Each dose group in the studies consisted of five rats per sex. Additional groups of each 5 male and female animals served as controls. Before starting the treatment period, animals, which were 62-64 days old when supplied, were acclimatized to the housing and environmental conditions for 7 days. All animals of the animal population were kept under the same constant temperature (20-24±3° C.) and the same constant humidity (30-70%). The animals of the animal population were fed ad libitum. The food to be used was essentially free of chemical or microbial contaminants. Drinking water was also offered ad libitum. Accordingly, the water was free of chemical and microbial contaminants as laid down in the European Drinking Water Directive 98/83/EG. The illumination period was 12 hours light followed by 12 hours darkness (12 hours light, from 6:00 to 18:00, and 12 hours darkness, from 18:00 to 6:00). The studies were performed in an AAALAC-approved laboratory in accordance with the German Animal Welfare Act and the European Council Directive 86/609/EE. The test system was arranged according to the OECD 407 guideline for the testing of chemicals for repeated dose 28-day oral toxicity study in rodents.
(§3) In the morning of day 7, 14, and 28, blood was taken from the retroorbital venous plexus from fasted anaesthetized animals. From each animal, 1 ml of blood was collected with EDTA as anticoagulant. The samples were centrifuged for generation of plasma. All plasma samples were covered with a N2 atmosphere and then stored at −80° C. until analysis.
(§4) For mass spectrometry-based metabolite profiling analyses plasma samples were extracted and a polar and a non-polar (lipid) fraction was obtained. For GC-MS analysis, the non-polar fraction was treated with methanol under acidic conditions to yield the fatty acid methyl esters. Both fractions were further derivatised with O-methyl-hydroxyamine hydrochloride and pyridine to convert Oxo-groups to O-methyloximes and subsequently with a silylating agent before analysis. In LC-MS analysis, both fractions were reconstituted in appropriate solvent mixtures. HPLC was performed by gradient elution on reversed phase separation columns. Mass spectrometric detection which allows target and high sensitivity MRM (Multiple Reaction Monitoring) profiling in parallel to a full screen analysis was applied as described in WO2003073464.
(§5) Steroids and their metabolites were measured by online SPE-LC-MS (Solid phase extraction-LC-MS).
(§6) Following comprehensive analytical validation steps, the data for each analyte were normalized against data from pool samples. These samples were run in parallel through the whole process to account for process variability. The significance of treatment group values specific for sex, treatment duration and metabolite was determined by comparing means of the treated groups to the means of the respective untreated control groups using WELCH-test and quantified with treatment ratios versus control and p-values.

rats [2] = test: Plasma metabolite profiling (GC-MS, LC-MS) in rats dosed once daily over 28 days, treatment ratios versus control
Method: as §1, §2, §3, §4, §5, §6

[3] = female rats, day 28, high dose, Table 1a up-regulation
[4] = female rats, day 28, high dose, Table 1b down-regulation
[5] = male rats, day 28, high dose, Table 1c up-regulation
[6] = male rats, day 28, high dose, Table 1d down-regulation

## O=C([O-])[O-].[Ca+2] [Calcium carbonate]
Rats [1]
  3-Hydroxybutyrate, plasma, ratio versus control: 1.09*
  4-Hydroxyphenylpyruvate, plasma, ratio versus control: 0.23*
  5-Oxoproline, plasma, ratio versus control: 0.87*
  16-Methylheptadecanoic acid, plasma, ratio versus control: 0.66*
  17-Methyloctadecanoic acid, plasma, ratio versus control: 0.92*
  Alanine, plasma, ratio versus control: 0.79*
  Coenzyme Q9, plasma, ratio versus control: 0.72*
  Creatine, plasma, ratio versus control: 0.48*
  Creatinine, plasma, ratio versus control: 0.43*
  DAG (C18:1, C18:2), plasma, ratio versus control: 0.87*
  Eicosaenoic acid (C20:1) No 02, plasma, ratio versus control: 1.3*
  Glucose, plasma, ratio versus control: 0.93*
  Glycerol, lipid fraction, plasma, ratio versus control: 0.66*
  Heptadecanoic acid (C17:0), plasma, ratio versus control: 0.76*
  Hippuric acid, plasma, ratio versus control: 0.71*
  Lactate, plasma, ratio versus control: 0.95*
  Linoleic acid (C18:cis[9, 12]2), plasma, ratio versus control: 0.67*
  Linolenic acid (C18:cis[9, 12, 15]3), plasma, ratio versus control: 0.81*
  Lysophosphatidylcholine (C17:0), plasma, ratio versus control: 0.82*
  Malate, plasma, ratio versus control: 0.54*
  Phenylalanine, plasma, ratio versus control: 0.93*
  Phosphatidylcholine (C16:0, C16:0), plasma, ratio versus control: 1.06*
  Phosphatidylcholine (C18:0, C20:4), plasma, ratio versus control: 1.02*
  Pyruvate, plasma, ratio versus control: 0.77*
  Sphingomyelin (d18:2, C16:0), plasma, ratio versus control: 1.11*
  TAG (C18:1, C18:2), plasma, ratio versus control: 0.75*
  TAG (C18:2, C18:2), plasma, ratio versus control: 0.74*
  TAG (C18:2, C18:3), plasma, ratio versus control: 0.64*
  TAG (DAG-Fragment), plasma, ratio versus control: 0.72*
  TAG No 01, plasma, ratio versus control: 0.55*
  TAG No 05, plasma, ratio versus control: 0.71*
  TAG No 07, plasma, ratio versus control: 0.71*
  TAG No 059, plasma, ratio versus control: 0.68*
  Threonic acid, plasma, ratio versus control: 0.86*
  Urea, plasma, ratio versus control: 1.15*
  gamma-Linolenic acid (C18:cis[6, 9, 12]3), plasma, ratio versus control: 0.7*

## [O-][Cl+3]([O-])([O-])O [Sodium perchlorate]
Rats [2]; male rats, day 7, high dose, Table 2a up-regulation
  Isoleucine, plasma, ratio versus control: 0.97
Rats [2]; male rats, day 28, high dose, Table 2a up-regulation
  Isoleucine, plasma, ratio versus control: 1.37 *
Rats [2]; male rats, day 28, high dose, Table 2c up-regulation
  Isoleucine, plasma, ratio versus control: 1.37*

## Calcitonin (Salmon)
Rats [2]; [3]
  3-Hydroxybutyrate, plasma, ratio versus control: 1.32*
  Coenzyme Q10, plasma, ratio versus control: 1.03*
  Eicosaenoic acid (C20:1) No 02, plasma, ratio versus control: 3.35*
  Phosphate (inorganic and organic phosphates), plasma, ratio versus control: 1.31*
  Phosphatidylcholine (C18:0, C20:4), plasma, ratio versus control: 1.05*
  Sphingomyelin (d18:2, C16:0), plasma, ratio versus control: 1.11*
  Urea, plasma, ratio versus control: 1.36*
  myo-Inositol-2-phosphate, plasma, ratio versus control: 1.27*
Rats [2]; [4]
  4-Hydroxyphenylpyruvate, plasma, ratio versus control: 0.63*
  18-Hydroxy-11-deoxycorticosterone, plasma, ratio versus control: 0.85*
  Alanine, plasma, ratio versus control: 0.75*
  Creatine, plasma, ratio versus control: 0.92*
  Creatinine, plasma, ratio versus control: 0.58*
  Glucose, plasma, ratio versus control: 0.95*
  Lysophosphatidylcholine (C17:0), plasma, ratio versus control: 0.91*
  Methionine, plasma, ratio versus control: 0.85*
  Phenylalanine, plasma, ratio versus control: 0.88*
  Threonic acid, plasma, ratio versus control: 0.75*
Rats [2]; [5]
  Glycine, plasma, ratio versus control: 0.86
  Phosphate (inorganic and organic phosphates), plasma, ratio versus control: 1.35*
  Phosphatidylcholine (C16:0, C16:0), plasma, ratio versus control: 1.24*
  myo-Inositol-2-phosphate, plasma, ratio versus control: 1.41*
Rats [2]; [6]
  5-Oxoproline, plasma, ratio versus control: 0.94*
  16-Methylheptadecanoic acid, plasma, ratio versus control: 0.59*
  17-Methyloctadecanoic acid, plasma, ratio versus control: 0.65*
  18-Hydroxy-11-deoxycorticosterone, plasma, ratio versus control: 0.24*
  Alanine, plasma, ratio versus control: 0.78*
  Coenzyme Q9, plasma, ratio versus control: 0.83*
  Coenzyme Q10, plasma, ratio versus control: 0.74*
  DAG (C18:1, C18:2), plasma, ratio versus control: 0.63*
  Glycerol, lipid fraction, plasma, ratio versus control: 0.86*
  Glycine, plasma, ratio versus control: 0.86*
  Heptadecanoic acid (C17:0), plasma, ratio versus control: 0.77*
  Hippuric acid, plasma, ratio versus control: 0.48*
  Lactate, plasma, ratio versus control: 0.7*
  Linoleic acid (C18:cis[9, 12]2), plasma, ratio versus control: 0.82*
  Linolenic acid (C18:cis[9, 12, 15]3), plasma, ratio versus control: 0.61*
  Malate, plasma, ratio versus control: 0.8*
  Methionine, plasma, ratio versus control: 0.88*
  Pyruvate, plasma, ratio versus control: 0.76*
  TAG (C18:1, C18:2), plasma, ratio versus control: 0.7*
  TAG (C18:2, C18:2), plasma, ratio versus control: 0.6*
  TAG (C18:2, C18:3), plasma, ratio versus control: 0.78*
  TAG (DAG-Fragment), plasma, ratio versus control: 0.7*
  TAG No 01, plasma, ratio versus control: 0.66*
  TAG No 05, plasma, ratio versus control: 0.68*
  TAG No 07, plasma, ratio versus control: 0.78*
  TAG No 059, plasma, ratio versus control: 0.65*
  gamma-Linolenic acid (C18:cis[6, 9, 12]3), plasma, ratio versus control: 0.98
